# Measurements reported in US12459922B2 (Gilead Sciences, Inc., priority 2022, dated 2025).
# Tested on: endogenous cellular STAT1 (phosphorylated at Tyr701) in NCI-H1373 cells
# Test: Phospho-STAT1 (Tyr701) LANCE Ultra TR-FRET Detection Assay
# Format: cell-based
# Settings: 48 hours, phospho-STAT1 (Tyr701) induction, read-out: NH1373 pSTAT1 EC50
# Procedure: Phospho-STAT1 (Tyr701 LANCE Ultra TR-FRET Detection Assay
# d. LANCE Ultra phospho-STAT1 (Tyr701) kits are designed for the detection of phosphorylated STAT1 in cell lysates using a simple, homogeneous LANCE Ultra sandwich assay (Cat. #TRF4028M). This assay is intended for assessing compound induction of endogenous levels of cellular STAT1 (phosphorylated at Tyr701) in NCI-H1373 cells. The NCI-H1373 cells are cultured in RPMI 1640 media containing 10% heat inactivated FBS, GlutaMAX, 1% Penicillin-Streptomycin. An Echo acoustic liquid handler is used to transfer 60 nanoliters of compound dilutions using the Echo Qualified, 384-well polypropylene microplate clear flat bottom source plates into a Greiner (#781080) cell culture microplate. NCI-H1373 cells are seeded into these compound-spotted culture plates at 30,000 cells/well in a 60 uL volume in growth media. The plates are incubated in a 5% CO2 humidified incubator at 37° C. for 48 hours. […] After spinning the plate down at 300 rpm for 1 min, the plate is read on an EnVision plate reader set up for Eu3+ Cryptate and fluorescence emission is measured at two different wavelengths (665 nm and 620 nm). The HTRF ratio is then calculated […] for each well to determine the amount of pSTAT1 in the cell lysate, and the data is then normalized to 10 uM GS-1154611 positive and DMSO negative controls.
row,EC50,SMILES
1,4.35 nM,"C[C@@H](CCCn1ccc2cc(-c3ncc(C(F)(F)F)c(N)n3)c(F)cc2c1=O)Nc1cn[nH]c(=O)c1C(F)(F)F [Example 100, 6-[4-amino-5-(trifluoromethyl)pyrimidin-2-yl]-7-fluoro-2-[(4S)-4-[[6-oxo-5-(trifluoromethyl)-1H-pyridazin-4-yl]amino]pentyl]isoquinolin-1-one]"

# Same assay, conditions: Homo sapiens, NCI-H1373, 48 h, phospho-STAT1 (Tyr701) induction, read-out: NH1373 pSTAT1 EC50
row,EC50,SMILES
1,11.1 nM,"C[C@@H](CCCn1ccc2cc(-c3ncc(N(C)C)cn3)c(F)cc2c1=O)Nc1cn[nH]c(=O)c1C(F)(F)F [Example 92, (S)-6-(5-(dimethylamino)pyrimidin-2-yl)-7-fluoro-2-(4-((6-oxo-5-(trifluoromethyl)-1,6-dihydropyridazin-4-yl)amino)pentyl)isoquinolin-1(2H)-one]"
2,22.8 nM,"C[C@@H](CCCn1ccc2cc(-c3ncc4c(n3)CCC4)c(F)cc2c1=O)Nc1cn[nH]c(=O)c1C(F)(F)F [Example 94, (S)-6-(6,7-dihydro-5H-cyclopenta[d]pyrimidin-2-yl)-7-fluoro-2-(4-((6-oxo-5-(trifluoromethyl)-1,6-dihydropyridazin-4-yl)amino)pentyl)isoquinolin-1(2H)-one]"
3,9.67 nM,"C[C@@H](CCCn1ccc2cc(-c3ncc(Cl)cn3)c(F)cc2c1=O)Nc1cn[nH]c(=O)c1C(F)(F)F [Example 98, (S)-6-(5-chloropyrimidin-2-yl)-7-fluoro-2-(4-((6-oxo-5-(trifluoromethyl)-1,6-dihydropyridazin-4-yl)amino)pentyl)isoquinolin-1(2H)-one]"
4,1280 nM,"C[C@@H](CCCn1ccc2cc(-c3ncc(N4CC5(COC5)C4)cn3)c(F)cc2c1=O)Nc1cn[nH]c(=O)c1C(F)(F)F [Example 99, (S)-6-(5-(2-oxa-6-azaspiro[3.3]heptan-6-yl)pyrimidin-2-yl)-7-fluoro-2-(4-((6-oxo-5-(trifluoromethyl)-1,6-dihydropyridazin-4-yl)amino)pentyl)isoquinolin-1(2H)-one]"
5,12.6 nM,"C[C@@H](CCCn1ccc2cc(-c3ncc(C#N)c(N)n3)c(F)cc2c1=O)Nc1cn[nH]c(=O)c1C(F)(F)F [Example 101, 4-amino-2-[7-fluoro-1-oxo-2-[(4S)-4-[[6-oxo-5-(trifluoromethyl)-1H-pyridazin-4-yl]amino]pentyl]-6-isoquinolyl]pyrimidine-5-carbonitrile]"
6,8.23 nM,"COc1cnc(-c2cc3ccn(CCC[C@H](C)Nc4cn[nH]c(=O)c4C(F)(F)F)c(=O)c3cc2F)nc1N [Example 102, 6-(4-amino-5-methoxy-pyrimidin-2-yl)-7-fluoro-2-[(4S)-4-[[6-oxo-5-(trifluoromethyl)-1H-pyridazin-4-yl]amino]pentyl]isoquinolin-1-one]"
7,39.8 nM,"C[C@@H](CCCn1ccc2cc(-c3ncc(F)c(N)n3)c(F)cc2c1=O)Nc1cn[nH]c(=O)c1C(F)(F)F [Example 103, 6-(4-amino-5-fluoro-pyrimidin-2-yl)-7-fluoro-2-[(4S)-4-[[6-oxo-5-(trifluoromethyl)-1H-pyridazin-4-yl]amino]pentyl]isoquinolin-1-one]"
8,2.22 nM,"C[C@@H](CCCn1ccc2cc(-c3ncc(C4CC4)c(N)n3)c(F)cc2c1=O)Nc1cn[nH]c(=O)c1C(F)(F)F [Example 107, 6-(4-amino-5-cyclopropyl-pyrimidin-2-yl)-7-fluoro-2-[(4S)-4-[[6-oxo-5-(trifluoromethyl)-1H-pyridazin-4-yl]amino]pentyl]isoquinolin-1-one]"
9,6.67 nM,"C[C@@H](CCCn1ccc2cc(-c3ncc([N+](=O)[O-])c(N)n3)c(F)cc2c1=O)Nc1cn[nH]c(=O)c1C(F)(F)F [Example 111, 6-(4-amino-5-nitro-pyrimidin-2-yl)-7-fluoro-2-[(4S)-4-[[6-oxo-5-(trifluoromethyl)-1H-pyridazin-4-yl]amino]pentyl]isoquinolin-1-one]"
10,2.07 nM,"C[C@@H](CCCn1ccc2cc(-c3ncc4c(n3)NCC4(C)C)c(F)cc2c1=O)Nc1cn[nH]c(=O)c1C(F)(F)F [Example 112, 6-(5,5-dimethyl-6,7-dihydropyrrolo[2,3-d]pyrimidin-2-yl)-7-fluoro-2-[(4S)-4-[[6-oxo-5-(trifluoromethyl)-1H-pyridazin-4-yl]amino]pentyl]isoquinolin-1-one]"

# More lines, now with the values behind:
row,SMILES,EC50
1,"C[C@@H](CC(F)(F)Cn1ccc2cc(-c3ncc(C(F)(F)F)cn3)c(F)cc2c1=O)Nc1cn[nH]c(=O)c1C(F)(F)F [Example 89, 2-[(4S)-2,2-difluoro-4-[[6-oxo-5-(trifluoromethyl)-1H-pyridazin-4-yl]amino]pentyl]-7-fluoro-6-[5-(trifluoromethyl)pyrimidin-2-yl]isoquinolin-1-one]",40.5 nM
2,"C[C@@H](CC(=O)Cn1ccc2cc(-c3ncc(C(F)(F)F)cn3)c(F)cc2c1=O)Nc1cn[nH]c(=O)c1C(F)(F)F [Example 90, 7-fluoro-2-[(4S)-2-oxo-4-[[6-oxo-5-(trifluoromethyl)-1H-pyridazin-4-yl]amino]pentyl]-6-[5-(trifluoromethyl)pyrimidin-2-yl]isoquinolin-1-one]",52 nM
3,"O=c1[nH]ncc(Nc2cccc(Cn3ccc4cc(-c5ncc(C(F)(F)F)cn5)c(F)cc4c3=O)c2)c1C(F)(F)F [Example 91, 7-fluoro-2-[[3-[[6-oxo-5-(trifluoromethyl)-1H-pyridazin-4-yl]amino]phenyl]methyl]-6-[5-(trifluoromethyl)pyrimidin-2-yl]isoquinolin-1-one]",290 nM
4,"C[C@@H](CCCn1ccc2cc(-c3ncc(-c4cc(C(F)(F)F)n(C)n4)cn3)c(F)cc2c1=O)Nc1cn[nH]c(=O)c1C(F)(F)F [Example 93, (S)-7-fluoro-6-(5-(1-methyl-5-(trifluoromethyl)-1H-pyrazol-3-yl)pyrimidin-2-yl)-2-(4-((6-oxo-5-(trifluoromethyl)-1,6-dihydropyridazin-4-yl)amino)pentyl)isoquinolin-1(2H)-one]",45.9 nM
5,"Cc1cnc(-c2cc3ncn(CCC[C@H](C)Nc4cn[nH]c(=O)c4C(F)(F)F)c(=O)c3cc2F)nc1 [Example 95, (S)-6-fluoro-7-(5-methylpyrimidin-2-yl)-3-(4-((6-oxo-5-(trifluoromethyl)-1,6-dihydropyridazin-4-yl)amino)pentyl)quinazolin-4(3H)-one]",97.1 nM
6,"C[C@@H](CCCn1ccc2cc(-c3cc(F)c(N)cn3)c(F)cc2c1=O)Nc1cn[nH]c(=O)c1C(F)(F)F [Example 96, (S)-6-(5-amino-4-fluoropyridin-2-yl)-7-fluoro-2-(4-((6-oxo-5-(trifluoromethyl)-1,6-dihydropyridazin-4-yl)amino)pentyl)isoquinolin-1(2H)-one]",558 nM
7,"C[C@@H](CCCn1ccc2cc(-c3cc(C(F)(F)F)c(N)cn3)c(F)cc2c1=O)Nc1cn[nH]c(=O)c1C(F)(F)F [Example 97, (S)-6-(5-amino-4-(trifluoromethyl)pyridin-2-yl)-7-fluoro-2-(4-((6-oxo-5-(trifluoromethyl)-1,6-dihydropyridazin-4-yl)amino)pentyl)isoquinolin-1(2H)-one]",67.3 nM
8,"C[C@@H](CCCn1ccc2cc(-c3nc(N)ncc3C(F)F)c(F)cc2c1=O)Nc1cn[nH]c(=O)c1C(F)(F)F [Example 105, 6-[2-amino-5-(difluoromethyl)pyrimidin-4-yl]-7-fluoro-2-[(4S)-4-[[6-oxo-5-(trifluoromethyl)-1H-pyridazin-4-yl]amino]pentyl]isoquinolin-1-one]",465 nM
9,"CNc1nc(-c2cc3ccn(CCC[C@H](C)Nc4cn[nH]c(=O)c4C(F)(F)F)c(=O)c3cc2F)ncc1C(F)(F)F [Example 106, 7-fluoro-6-[4-(methylamino)-5-(trifluoromethyl)pyrimidin-2-yl]-2-[(4S)-4-[[6-oxo-5-(trifluoromethyl)-1H-pyridazin-4-yl]amino]pentyl]isoquinolin-1-one]",2.31 nM
10,"C[C@@H](CCCn1cnc2cc(-c3ncc(C(F)F)c(N)n3)c(F)cc2c1=O)Nc1cn[nH]c(=O)c1C(F)(F)F [Example 108, 7-[4-amino-5-(difluoromethyl)pyrimidin-2-yl]-6-fluoro-3-[(4S)-4-[[6-oxo-5-(trifluoromethyl)-1H-pyridazin-4-yl]amino]pentyl]quinazolin-4-one]",29.4 nM
11,"COc1cnc(-c2cc3ccn(CCC[C@H](C)Nc4cn[nH]c(=O)c4C(F)(F)F)c(=O)c3c(F)c2F)nc1N [Example 109, 6-(4-amino-5-methoxy-pyrimidin-2-yl)-7,8-difluoro-2-[(4S)-4-[[6-oxo-5-(trifluoromethyl)-1H-pyridazin-4-yl]amino]pentyl]isoquinolin-1-one]",8.59 nM
12,"C[C@@H](CCCn1ccc2cc(-c3ncc(C#N)c(N)n3)c(F)c(F)c2c1=O)Nc1cn[nH]c(=O)c1C(F)(F)F [Example 110, 4-amino-2-[7,8-difluoro-1-oxo-2-[(4S)-4-[[6-oxo-5-(trifluoromethyl)-1H-pyridazin-4-yl]amino]pentyl]-6-isoquinolyl]pyrimidine-5-carbonitrile]",13.4 nM
13,"C[C@@H](CCCn1ccc2cc(-c3ncc(C(F)F)c(N)n3)c(F)c(F)c2c1=O)Nc1cn[nH]c(=O)c1C(F)(F)F [Example 113, 6-[4-amino-5-(difluoromethyl)pyrimidin-2-yl]-7,8-difluoro-2-[(4S)-4-[[6-oxo-5-(trifluoromethyl)-1H-pyridazin-4-yl]amino]pentyl]isoquinolin-1-one]",6.93 nM
